Measurements published in patent US20230201179A1, “AGENT FOR TREATING CONTRAST-INDUCED ACUTE KIDNEY INJURY” (APTABIO THERAPEUTICS INC., priority 2020, published 2023).

Legend:
[1] = test system: contrast media-induced acute kidney injury; assay: Efficacy evaluation in animal model with contrast media-induced acute kidney injury in mice; type: in vivo, C57BL/6 mice
Experimental: As the experimental animals, 6-week-old male C57BL/6 mice were purchased from LionBio. All mice were maintained under standard conditions. After breeding for about 2 weeks, at 8 weeks of age, Compound 1 (3-phenyl-4-n-propyl-1-(pyridin-2-yl)-1H-pyrazol-5-ol hydrochloride) was orally administered at a dose of 60 mg/kg daily for 5 days before administration of contrast media. In order to induce acute kidney injury, after a fast of 16 hours, the anti-inflammatory analgesic indomethacin (10 mg/kg) and the NO blocker N-nitro-L-arginine (L-NAME, 10 mg/kg) were intraperitoneally administered 15 minutes before administration of contrast media, and contrast media (Iohexol, 4000 mg iodine/kg) was intraperitoneally administered 15 minutes later. After 24 hours of supplying food and water, the animal test substances were classified into three groups: vehicle administered group (Control) and contrast media administered group (Iohexol), and contrast media and Compound 1 simultaneously administered group (Iohexol+Compound 1). After completion of the test, the animals were anesthetized, kidney tissue was enucleated for each individual, and blood was taken for examination. The tissues were fixed in 10% buffered neutral formalin solution. The fixed tissues were sliced to a certain thickness and paraffin-embedded through a general tissue processing process to produce a tissue section of 4 to 5 μm, and then hematoxylin & eosin staining (H&E stain), which is a general staining method, was performed to observe histopathologically the extent of kidney injury in the region of the renal cortex and renal medulla, and F4/80 staining, Tunel staining, DHE staining and nitrotyrosine staining were performed to observe the effects of inflammation and oxidative stress in the kidney injury tissue. Blood was taken and centrifuged at 3000 rpm, 4° C. for 10 minutes, and the upper layer of serum was taken and the level of blood urea nitrogen (BUN) and creatinine was measured using an automatic blood biochemical analyzer (AU480, Beckman Coulter, USA) to confirm the indicator of kidney injury. Histologic evaluation of the degree of kidney injury was calculated as 0 point for no renal tubular injury, 1 point for mild injury, 2 points for intratubular vacuolar lesions less than 25-60%, and 3 points for intratubular vacuolar lesions of 60% or more, thereby formulating the average value of renal tubular injury under the microscope field of view.

reactive oxygen species = assay: Inhibitory effect on the formation of reactive oxygen species
[2] = 60 mg/kg orally once a day for 5 days before Iohexol, vs contrast media-treated group

CCCc1c(-c2ccccc2)nn(-c2ccccn2)c1O.Cl [Compound 1, 3-phenyl-4-propyl-1-(pyridin-2-yl)-1H-pyrazol-5-ol hydrochloride]
kidney injury of the renal medulla and the renal cortex (H&E histopathology, FIG. 1) ([1]; 60 mg/kg orally once a day for 5 days before Iohexol 4000 mg iodine/kg i.p., vs contrast media-treated group): remarkably reduced
renal tubular injury score (FIG. 5) ([1]; 60 mg/kg orally once a day for 5 days before Iohexol, score 0-3, renal biopsy): remarkably reduced
activated oxygen (reactive oxygen species, DHE staining) in the kidney tissue (FIG. 8) [1, 2]: remarkably reduced
concentration of BUN (serum, FIG. 2) [1, 2]: decreased
concentration of KIM-1 in the urine (FIG. 4) [1, 2]: decreased
concentration of NGAL in the urine (FIG. 4) [1, 2]: decreased
concentration of creatinine (Serum Cr, FIG. 3) [1, 2]: decreased
concentration of microproteinuria (albumin) in the urine (FIG. 4) [1, 2]: decreased
infiltration of inflammatory cells (macrophages, F4/80-positive cells) within the kidney tissue (FIG. 7) [1, 2]: remarkably reduced
inflammation (MCP-1 gene expression) in the kidney tissue (FIG. 6) [1, 2]: remarkably reduced
nitrotyrosine in the kidney tissue (FIG. 9) [1, 2]: remarkably reduced

CCc1c(-c2ccccc2)nn(-c2ccccn2)c1O [3-phenyl-4-ethyl-1-(pyridin-2-yl)-1H-pyrazol-5-ol]
inhibitory effect on the formation of reactive oxygen species (reactive oxygen species): inhibitory effect

CCCCc1c(-c2ccccc2)nn(-c2ccccn2)c1O [3-phenyl-4-butyl-1-(pyridin-2-yl)-1H-pyrazol-5-ol]
inhibitory effect on the formation of reactive oxygen species (reactive oxygen species): inhibitory effect

CCCc1c(-c2ccccc2)nn(-c2ccccn2)c1O [3-phenyl-4-propyl-1-(pyridin-2-yl)-1H-pyrazol-5-ol]
inhibitory effect on the formation of reactive oxygen species (reactive oxygen species): inhibitory effect
